Measured values published in US20220267380A1, “Glycopeptides Increasing Lipid Synthesis” (TFCHEM, priority 2019, published 2022).

System: normal human dermal fibroblasts (NHDF)
Assay: Gene expression in NHDF, full transcriptome analysis with Affymetrix U219 microarray
Type: cell-based
Conditions: NHDF
Experimental: In the present study, the transcriptional effects (modulation of gene expression) of compounds 1, 2, 3 and 4 were evaluated on normal human dermal fibroblasts (NHDF) under basal conditions.
More specifically, the comparative analysis of the different transcriptomic profiles was performed using an Affymetrix GeneAtlas platform and the human “full transcriptome” U219 chip, which includes 36,000 transcripts and variants.
Fibroblasts were seeded in 24-well plates and cultured in culture medium for 24 hours. The medium was then replaced by assay medium and cells were incubated for further 24 hours. The medium was replaced by assay medium containing or not (control) the test compounds at different concentrations and the cells were preincubated for 24 hours. All experimental conditions were performed in triplicate. At the end of incubation, the culture supernatants were removed and the cells were washed in a phosphate buffered saline (PBS) solution and immediately frozen at −80° C.
Before RNA extraction, the replicates were pooled. Total RNA was extracted from each sample using TriPure Isolation Reagent® according to the supplier's instructions. The amount and quality of total RNA were evaluated for all samples using capillary electrophoresis (Bioanalyzer 2100, Agilent technologies). From each RNA, a labeled and amplified anti-sens RNA (aRNA) was obtained using GeneChip 3′IVT PLUS Kit (Affymetrix). For each labeled and amplified aRNA sample the profiles were evaluated before and after fragmentation using capillary electrophoresis (Bioanalyzer 2100, Agilent technologies). Hybridization of fragmented aRNA onto Affymetrix® U219 chip (36,000 transcripts and variants) was performed in the GeneAtlas™ fluidics Affymetrix® hybridization station for 20 hours at 45° C. U219 chip was analyzed using the GeneAtlas™ Imaging station (Affymetrix®—resolution 2 μm) to generate fluorescence intensity data.
Expression Console and Quality controls: data were normalized with the Expression Console (Affymetrix®) software using RMA algorithm. Then a quality control of the labeling and the hybridization was performed. Hybridization and labeling steps successfully passed the quality controls for these experiments.
Data reduction, Excel file description: once normalized with Expression Console, data were transferred into a Microsoft Excel® file in order to go further into data reduction.
Calculation and tools were added in order to rank and sort data, and finally to support data interpretation. Detection thresholds in terms of fold change were defined and applied on normalized data.
Results are considered and presented or commented per gene (and not probe). A probe set is a collection of probes designed to interrogate a given sequence of a gene. For data interpretation, the most important relative expression value obtained with one probe is considered to be representative of the corresponding gene. The file contains the following data: • Relative expression (RE) for each sample, • Fold change calculation, • Gene information.

[1] = relative expression adjusted to detection limit (<20), 10 mg/ml, 24 h

## C[C@H](NC(=O)[C@H](C)NC(=O)[C@@H](N)CCCCNCC(F)(F)[C@]1(O)O[C@H](CO)[C@H](O)[C@H](O)[C@H]1O)C(=O)O [Compound 1]
  effect of treatment of NHDF on lipid synthesis (transcriptional): up regulation of lipid and cholesterol synthesis
10 mg/ml, 24 h, vs control
  Fold change, ABCA1: 2.11
  Fold change, ABHD4: 2.05
  Fold change, ABHD5: 2.63
  Fold change, ACAT2: 2.12
  Fold change, AKR1C1: 2.13
  Fold change, AKR1C2: 2.60
  Fold change, CH25H: 0.36
  Fold change, CYP51A1///LRRD1: 2.20
  Fold change, DHCR7: 3.68
  Fold change, HMGCR: 2.02
  Fold change, HSD17B7: 2.44
  Fold change, HSD17B14: 2.00
  Fold change, IDI1: 2.01
  Fold change, LPIN1: 2.46
  Fold change, LRP8: 2.95
  Fold change, MSMO1: 2.03
  Fold change, MVD: 2.45
  Fold change, NEU1: 2.74
  Fold change, PCYT2: 2.41
  Fold change, PLD1: 2.15
  Fold change, PTPLA: 2.31
  Fold change, SOAT1: 2.01
  Fold change, SREBF1: 3.24
10 mg/ml, 24 h, vs control, probe set 11715460_a_at
  Fold change, DHCR24: 2.05
10 mg/ml, 24 h, vs control, probe set 11716114_x_at
  Fold change, POR: 2.20
10 mg/ml, 24 h, vs control, probe set 11716337_s_at
  Fold change, INSIG1: 2.46
10 mg/ml, 24 h, vs control, probe set 11716338_a_at
  Fold change, INSIG1: 3.42
10 mg/ml, 24 h, vs control, probe set 11716339_a_at
  Fold change, INSIG1: 3.38
10 mg/ml, 24 h, vs control, probe set 11716987_a_at
  Fold change, HMGCS1: 3.15
10 mg/ml, 24 h, vs control, probe set 11717295_s_at
  Fold change, APOD: 0.30
10 mg/ml, 24 h, vs control, probe set 11717620_a_at
  Fold change, LSS: 2.08
10 mg/ml, 24 h, vs control, probe set 11717859_a_at
  Fold change, EBP: 2.68
10 mg/ml, 24 h, vs control, probe set 11718366_s_at
  Fold change, FDPS: 2.02
10 mg/ml, 24 h, vs control, probe set 11719098_a_at
  Fold change, MVK: 2.08
10 mg/ml, 24 h, vs control, probe set 11719908_a_at
  Fold change, GBA///GBAP1: 2.93
10 mg/ml, 24 h, vs control, probe set 11720028_x_at
  Fold change, LDLR: 2.53
10 mg/ml, 24 h, vs control, probe set 11720029_a_at
  Fold change, LDLR: 2.11
10 mg/ml, 24 h, vs control, probe set 11722208_a_at
  Fold change, PTGS1: 2.77
10 mg/ml, 24 h, vs control, probe set 11722209_a_at
  Fold change, PTGS1: 2.62
10 mg/ml, 24 h, vs control, probe set 11722210_a_at
  Fold change, PTGS1: 3.14
10 mg/ml, 24 h, vs control, probe set 11724199_x_at
  Fold change, LSS: 2.21
10 mg/ml, 24 h, vs control, probe set 11724792_a_at
  Fold change, PGS1: 2.01
10 mg/ml, 24 h, vs control, probe set 11730180_s_at
  Fold change, KDSR: 2.16
10 mg/ml, 24 h, vs control, probe set 11730181_s_at
  Fold change, KDSR: 2.29
10 mg/ml, 24 h, vs control, probe set 11731324_a_at
  Fold change, LSS: 2.53
10 mg/ml, 24 h, vs control, probe set 11736100_a_at
  Fold change, GBA: 2.74
10 mg/ml, 24 h, vs control, probe set 11736285_a_at
  Fold change, CHKA: 2.27
10 mg/ml, 24 h, vs control, probe set 11736286_a_at
  Fold change, CHKA: 3.00
10 mg/ml, 24 h, vs control, probe set 11737039_a_at
  Fold change, PHLDB2: 2.96
10 mg/ml, 24 h, vs control, probe set 11737041_a_at
  Fold change, PHLDB2: 2.45
10 mg/ml, 24 h, vs control, probe set 11737042_s_at
  Fold change, PHLDB2: 2.97
10 mg/ml, 24 h, vs control, probe set 11737043_x_at
  Fold change, PHLDB2: 2.47
10 mg/ml, 24 h, vs control, probe set 11743916_a_at
  Fold change, NPC1: 6.53
10 mg/ml, 24 h, vs control, probe set 11744899_a_at
  Fold change, FADS2: 2.64
10 mg/ml, 24 h, vs control, probe set 11744902_a_at
  Fold change, FADS2: 2.09
10 mg/ml, 24 h, vs control, probe set 11745459_a_at
  Fold change, FADS1///MIR1908: 4.20
10 mg/ml, 24 h, vs control, probe set 11746281_a_at
  Fold change, LPCAT3: 2.31
10 mg/ml, 24 h, vs control, probe set 11746723_a_at
  Fold change, NPC1: 4.53
10 mg/ml, 24 h, vs control, probe set 11746974_a_at
  Fold change, LDLR: 2.99
10 mg/ml, 24 h, vs control, probe set 11747747_a_at
  Fold change, MVK: 2.02
10 mg/ml, 24 h, vs control, probe set 11748045_x_at
  Fold change, LDLR: 2.84
10 mg/ml, 24 h, vs control, probe set 11748292_a_at
  Fold change, GBA///GBAP1: 2.57
10 mg/ml, 24 h, vs control, probe set 11748368_x_at
  Fold change, POR: 2.03
10 mg/ml, 24 h, vs control, probe set 11748428_a_at
  Fold change, PGS1: 2.41
10 mg/ml, 24 h, vs control, probe set 11749042_a_at
  Fold change, DHCR24: 2.15
10 mg/ml, 24 h, vs control, probe set 11749332_x_at
  Fold change, EBP: 2.66
10 mg/ml, 24 h, vs control, probe set 11749730_a_at
  Fold change, PTGS1: 3.89
10 mg/ml, 24 h, vs control, probe set 11750975_x_at
  Fold change, GBA: 2.68
10 mg/ml, 24 h, vs control, probe set 11751085_a_at
  Fold change, GBA: 3.02
10 mg/ml, 24 h, vs control, probe set 11751086_x_at
  Fold change, GBA: 2.37
10 mg/ml, 24 h, vs control, probe set 11751098_a_at
  Fold change, GBA///GBAP1: 3.03
10 mg/ml, 24 h, vs control, probe set 11751099_x_at
  Fold change, GBA///GBAP1: 2.75
10 mg/ml, 24 h, vs control, probe set 11751337_a_at
  Fold change, DHCR24: 2.27
10 mg/ml, 24 h, vs control, probe set 11751338_x_at
  Fold change, DHCR24: 2.26
10 mg/ml, 24 h, vs control, probe set 11752670_a_at
  Fold change, FADS1///MIR1908: 4.05
10 mg/ml, 24 h, vs control, probe set 11753439_a_at
  Fold change, GBA///GBAP1: 2.64
10 mg/ml, 24 h, vs control, probe set 11754819_x_at
  Fold change, GBA///GBAP1: 2.59
10 mg/ml, 24 h, vs control, probe set 11754918_s_at
  Fold change, HMGCS1: 2.32
10 mg/ml, 24 h, vs control, probe set 11754939_x_at
  Fold change, FADS2: 2.11
10 mg/ml, 24 h, vs control, probe set 11755123_x_at
  Fold change, LPCAT3: 2.37
10 mg/ml, 24 h, vs control, probe set 11755251_x_at
  Fold change, FADS1///MIR1908: 4.13
10 mg/ml, 24 h, vs control, probe set 11756065_x_at
  Fold change, APOD: 0.24
10 mg/ml, 24 h, vs control, probe set 11757008_a_at
  Fold change, LPCAT3: 2.86
10 mg/ml, 24 h, vs control, probe set 11757009_x_at
  Fold change, LPCAT3: 2.10
10 mg/ml, 24 h, vs control, probe set 11758249_s_at
  Fold change, FDPS: 2.10
[1]
  REadj2, ABCA1: 979.20
  REadj2, ABHD4: 65.43
  REadj2, ABHD5: 212.72
  REadj2, ACAT2: 1280.94
  REadj2, AKR1C1: 3725.47
  REadj2, AKR1C2: 209.16
  REadj2, CH25H: 60.89
  REadj2, CYP51A1///LRRD1: 1291.92
  REadj2, DHCR7: 695.09
  REadj2, HMGCR: 395.78
  REadj2, HSD17B7: 91.10
  REadj2, HSD17B14: 46.74
  REadj2, IDI1: 1244.81
  REadj2, LPIN1: 240.89
  REadj2, LRP8: 93.15
  REadj2, MSMO1: 1789.72
  REadj2, MVD: 262.34
  REadj2, NEU1: 555.40
